Read-outs that look alike come from different tables or passages of the source.
Assays:
[1] = tested on: glioblastoma line U87MG cells; assay: CTG (CellTiter-Glo) cell viability assay, 6×6 combo matrix, 72 h, U87MG; details: Homo sapiens, U-87 MG;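 also: U87MG cells seeded at 2000 per well, exposed 72 h, viability read by CellTiter-Glo luminescence, inhibition expressed relative to vehicle-treated wells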
[2] = tested on: gastric cancer line MKN45 cells; assay: CTG (CellTiter-Glo) cell viability assay, 6×6 combo matrix, 72 h, MKN45;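 also: MKN45 cell viability read as CellTiter-Glo luminescence after 72 h culture at 37 °C under 5% CO2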
[3] = tested on: colorectal cancer line HT29 cells; assay: CTG (CellTiter-Glo) cell viability assay, 6×6 combo matrix, 72 h, HT29; details: HT29;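 also: cells exposed to compounds for 72 hours at 37 °C under 5% CO2, then viability read as luminescence after adding CellTiter-Glo Reagent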
[4] = tested on: lung adenocarcinoma line A549 cells; assay: CTG (CellTiter-Glo) cell viability assay, 6×6 combo matrix, 72 h, A549; details: for Relatively Cell inhibition of vehicle control(%): A549;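 as to all read-outs here: luminescent ATP readout with CellTiter-Glo after compound exposure, used to assess growth inhibition and combination synergy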
[5] = tested on: kidney cancer line 786-O cells; assay: CTG (CellTiter-Glo) cell viability assay, 6×6 combo matrix, 72 h, 786-O; details: Homo sapiens;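 also: luminescence read-out after adding CellTiter-Glo reagent, with cells incubated at 37 °C under 5% CO2 during compound exposure, part of a ten cell line synergy study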
Method: To measure the cell inhibition effect of compounds and synergy effect of test articles on ten (10) cell lines using standard CTG assay.
7) Using complete cell medium, adjust the volume of the suspension to achieve a cell concentration.
b. A549, T47D, SK-OV-3, MKN45, SK-Hep-1, HT-29, Capan-1, 786-O and LNCaP cell line, for compounds and vehicle groups, the seeding density of cell lines is 3000 cells/80 µL per well. For blank groups, add 100 µL medium. For PBS groups, add 100 µL PBS.
8) Incubate the U87MG, A549, T47D, SK-OV-3, MKN45, SK-Hep-1, HT-29, Capan-1, 786-O and LNCaP cells overnight at 37° C./5% CO2.
Solid compound of cis-platinum was solubilized in PBS to a stock solution of 3.333 mM.
Final volume is 100 µL per well at this point.
5) Incubate the plates at 37° C./5% CO2 for 72 hours.
1) Incubate the plates at room temperature and away from light for 30 minutes.
3) Add 100 µL /well of CellTiter-Glo® Reagent in each well. Avoid light.
4) Mix contents for 2 minutes on an orbital shaker.
5) Incubate plate at room temperature for 10 minutes to stabilize the luminescent signal.
6) Read plates in Envision.

[6] = Homo sapiens, A549, read-out: Relatively Cell inhibition of vehicle control(%)

O=c1c(O)c(-c2cc(O)c(O)c(O)c2)oc2cc(O)cc(O)c12 [myricetin]
inhibition at 4 µM ([1]; read-out: Relatively Cell inhibition of vehicle control(%), myricetin 4 µM only (cisplatin plate)): -0.71%
inhibition at 4 µM ([1]; read-out: Relatively Cell inhibition of vehicle control(%), myricetin 4 µM only (doxorubicin plate)): 1.02%
inhibition at 4 µM ([1]; read-out: Relatively Cell inhibition of vehicle control(%), myricetin 4 µM only (taxol plate)): 0.66%
inhibition at 4 µM ([1]; read-out: Relatively Cell inhibition of vehicle control(%), myricetin 4 µM only (topotecan plate)): 3.52%
inhibition at 20 µM ([1]; read-out: Relatively Cell inhibition of vehicle control(%), myricetin 20 µM only (cisplatin plate)): 9.21%
inhibition at 20 µM ([1]; read-out: Relatively Cell inhibition of vehicle control(%), myricetin 20 µM only (doxorubicin plate)): 7.98%
inhibition at 20 µM ([1]; read-out: Relatively Cell inhibition of vehicle control(%), myricetin 20 µM only (taxol plate)): 11.1%
inhibition at 20 µM ([1]; read-out: Relatively Cell inhibition of vehicle control(%), myricetin 20 µM only (topotecan plate)): 8.45%
inhibition at 100 µM ([1]; read-out: Relatively Cell inhibition of vehicle control(%), myricetin 100 µM only (cisplatin plate)): 46.8%
inhibition at 100 µM ([1]; read-out: Relatively Cell inhibition of vehicle control(%), myricetin 100 µM only (doxorubicin plate)): 32.3%
inhibition at 100 µM ([1]; read-out: Relatively Cell inhibition of vehicle control(%), myricetin 100 µM only (taxol plate)): 45.7%
inhibition at 100 µM ([1]; read-out: Relatively Cell inhibition of vehicle control(%), myricetin 100 µM only (topotecan plate)): 43.4%
Relatively Cell inhibition of vehicle control(%) ([2]; Myr 0.8 µM only (Cis 0)): 5.96%
Relatively Cell inhibition of vehicle control(%) ([2]; Myr 0.8 µM only (Dox 0)): 1.79%
Relatively Cell inhibition of vehicle control(%) ([2]; Myr 0.8 µM only (Tax 0)): 0.13%
Relatively Cell inhibition of vehicle control(%) ([2]; Myr 0.8 µM only (Top 0)): -8.02%
Relatively Cell inhibition of vehicle control(%) ([2]; Myr 4 µM only (Cis 0)): 6.78%
Relatively Cell inhibition of vehicle control(%) ([2]; Myr 4 µM only (Dox 0)): 2.42%
Relatively Cell inhibition of vehicle control(%) ([2]; Myr 4 µM only (Tax 0)): -1.75%
Relatively Cell inhibition of vehicle control(%) ([2]; Myr 4 µM only (Top 0)): -4.89%
Relatively Cell inhibition of vehicle control(%) ([2]; Myr 20 µM only (Cis 0)): 14.42%
Relatively Cell inhibition of vehicle control(%) ([2]; Myr 20 µM only (Dox 0)): 13.04%
Relatively Cell inhibition of vehicle control(%) ([2]; Myr 20 µM only (Tax 0)): 5.06%
Relatively Cell inhibition of vehicle control(%) ([2]; Myr 20 µM only (Top 0)): 1.70%
Relatively Cell inhibition of vehicle control(%) ([2]; Myr 100 µM only (Cis 0), listed as Myr): 44.00%
Relatively Cell inhibition of vehicle control(%) ([2]; Myr 100 µM only (Dox 0)): 35.29%
Relatively Cell inhibition of vehicle control(%) ([2]; Myr 100 µM only (Tax 0)): 32.89%
Relatively Cell inhibition of vehicle control(%) ([2]; Myr 100 µM only (Top 0)): 29.93%
Relatively Cell inhibition of vehicle control(%) ([3]; Myr 0.8 µM only (Cis 0)): 3.87%
Relatively Cell inhibition of vehicle control(%) ([3]; Myr 0.8 µM only (Dox 0)): -1.09%
Relatively Cell inhibition of vehicle control(%) ([3]; Myr 0.8 µM only (Tax 0)): -1.36%
Relatively Cell inhibition of vehicle control(%) ([3]; Myr 0.8 µM only (Top 0)): -0.48%
Relatively Cell inhibition of vehicle control(%) ([3]; Myr 4 µM only (Cis 0)): 6.56%
Relatively Cell inhibition of vehicle control(%) ([3]; Myr 4 µM only (Dox 0)): -0.67%
Relatively Cell inhibition of vehicle control(%) ([3]; Myr 4 µM only (Tax 0)): 0.80%
Relatively Cell inhibition of vehicle control(%) ([3]; Myr 4 µM only (Top 0)): 3.33%
Relatively Cell inhibition of vehicle control(%) ([3]; Myr 20 µM only (Cis 0)): 24.55%
Relatively Cell inhibition of vehicle control(%) ([3]; Myr 20 µM only (Dox 0)): 23.37%
Relatively Cell inhibition of vehicle control(%) ([3]; Myr 20 µM only (Tax 0)): 32.84%
Relatively Cell inhibition of vehicle control(%) ([3]; Myr 20 µM only (Top 0)): 24.77%
Relatively Cell inhibition of vehicle control(%) ([3]; Myr 100 µM only (Cis 0)): 90.42%
Relatively Cell inhibition of vehicle control(%) ([3]; Myr 100 µM only (Dox 0)): 74.39%
Relatively Cell inhibition of vehicle control(%) ([3]; Myr 100 µM only (Tax 0)): 88.39%
Relatively Cell inhibition of vehicle control(%) ([3]; Myr 100 µM only (Top 0)): 87.04%
inhibition at 0.8 µM [4, 6]: -3.15%
inhibition at 4 µM [4, 6]: 0.85%
inhibition at 20 µM [4, 6]: 7.42%
inhibition at 100 µM [4, 6]: 40.3%
Relatively Cell inhibition of vehicle control(%) ([4]; Myr 0.8 µM only (taxol matrix)): -0.98%
Relatively Cell inhibition of vehicle control(%) ([4]; Myr 4 µM only (taxol matrix)): 3.22%
Relatively Cell inhibition of vehicle control(%) ([4]; Myr 20 µM only (taxol matrix)): 9.01%
Relatively Cell inhibition of vehicle control(%) ([4]; Myr 100 µM only (taxol matrix)): 41.11%
inhibition at 0.8 µM ([5]; 786-0, read-out: Relatively Cell inhibition of vehicle control, myricetin 0.8 µM only (cisplatin table)): 0.79%
inhibition at 0.8 µM ([5]; 786-0, read-out: Relatively Cell inhibition of vehicle control, myricetin 0.8 µM only (doxorubicin table)): 0.86%
inhibition at 0.8 µM ([5]; 786-0, read-out: Relatively Cell inhibition of vehicle control, myricetin 0.8 µM only (taxol table)): 0.33%
inhibition at 0.8 µM ([5]; 786-0, read-out: Relatively Cell inhibition of vehicle control, myricetin 0.8 µM only (topotecan table)): 0.12%
inhibition at 4 µM ([5]; 786-0, read-out: Relatively Cell inhibition of vehicle control, myricetin 4 µM only (cisplatin table)): 2.54%
inhibition at 4 µM ([5]; 786-0, read-out: Relatively Cell inhibition of vehicle control, myricetin 4 µM only (doxorubicin table)): 4.47%
inhibition at 4 µM ([5]; 786-0, read-out: Relatively Cell inhibition of vehicle control, myricetin 4 µM only (taxol table)): 2.6%
inhibition at 4 µM ([5]; 786-0, read-out: Relatively Cell inhibition of vehicle control, myricetin 4 µM only (topotecan table)): 4.03%
inhibition at 20 µM ([5]; 786-0, read-out: Relatively Cell inhibition of vehicle control, myricetin 20 µM only (cisplatin table)): 10.8%
inhibition at 20 µM ([5]; 786-0, read-out: Relatively Cell inhibition of vehicle control, myricetin 20 µM only (doxorubicin table)): 11.2%
inhibition at 20 µM ([5]; 786-0, read-out: Relatively Cell inhibition of vehicle control, myricetin 20 µM only (taxol table)): 9.84%
inhibition at 20 µM ([5]; 786-0, read-out: Relatively Cell inhibition of vehicle control, myricetin 20 µM only (topotecan table)): 10.4%
inhibition at 100 µM ([5]; 786-0, read-out: Relatively Cell inhibition of vehicle control, myricetin 100 µM only (cisplatin table)): 43.4%
inhibition at 100 µM ([5]; 786-0, read-out: Relatively Cell inhibition of vehicle control, myricetin 100 µM only (doxorubicin table)): 43.1%
inhibition at 100 µM ([5]; 786-0, read-out: Relatively Cell inhibition of vehicle control, myricetin 100 µM only (taxol table)): 42%
inhibition at 100 µM ([5]; 786-0, read-out: Relatively Cell inhibition of vehicle control, myricetin 100 µM only (topotecan table)): 44.8%

Reference: patent publication US20230165831A1, “METHOD AND COMPOSITION FOR RENDERING CANCER CELLS SUSCEPTIBLE TO TREATMENT BY TARGETED ONCOGENETIC DRIVERS” (IMPACT BIOLIFE SCIENCE, INC., priority 2021, published 2023)
